Results taken from patent publication US20080249072A1, “Use of Low Dose Chemically Modified Tetracylines to Reduce Inflammatory Mediators” (priority 2005, published 2008).

What was measured:
Format in all cases: cell-based
[1] = system: Macrophage Chemotactic Protein-1 (MCP-1); assay: MCP-1 production by human monocytes/macrophages stimulated by CRP/Oxid. LDL complex (ELISA)
Description: (§1) Experiments were conducted to compare the efficacy of two tetracycline compounds, doxycycline and CMT-3, on reducing the production of inflammatory mediators, TNF-α, IL-6 and MCP-1 produced by monocytes/macrophages. Doxycycline is a well known tetracycline antibiotic. CMT-3 is a non-antibacterial 4-dedimethylamino derivative of sancycline. See above. The experiments utilized a cell culture stimulated by biologic factors that cause inflammation, such as the inflammation seen in, for example, coronary and cerebro-vascular disease. Units of human blood were obtained and peripheral blood monocytes were separated by Ficoll-Hypaque gradient centrifugation. Viable human monocytes/macrophages were incubated in cell culture under standard sterile conditions on plastic in RPMI media at 37° C. for 18 hours. The monocytes/macrophages were incubated under the following experimental conditions: • (i) cells alone; • (ii) cells stimulated by c-reactive protein (CRP)/Oxidized LDL cholesterol complex (CRP/Oxid. LDL complex), no tetracycline present; • (iii) cells stimulated by CRP/Oxid. LDL complex with doxycycline at concentrations of 0.7 μg/ml, 5.0 μg/ml and 10.0 μg/ml; and. • (iv) cells stimulated by CRP/Oxid. LDL complex with CMT-3 at concentrations of 0.5 μg/ml, 1.5 μg/ml and 5.0 μg/ml. CRP/Oxid. LDL complex stimulates monocytes/macrophages to secrete excessive levels of cytokines (e.g. IL-1, IL-6, TNF-α, and MCP-1). Excessive levels of cytokines result in the rupture of atheroscleromatus plaques lining coronary and cerebral arteries causing thrombosis, heart attack and stroke. At the end of an 18 hour incubation, the conditioned media were collected and analyzed by ELISA for inflammatory mediators IL-6, TNF-α and MCP-1. The results are described in examples 1-3.

Interleukin-6 (IL-6) = assay: IL-6 production by human monocytes/macrophages stimulated by CRP/Oxid. LDL complex (ELISA)
Description: as §1

[2] = system: Tumor Necrosis Factor-α (TNF-α); assay: TNF-α production by human monocytes/macrophages stimulated by CRP/Oxid. LDL complex (ELISA)
Description: as §1

[3] = highest concentration, 5.0 μg/ml
[4] = all three concentrations tested (0.5, 1.5 and 5.0 μg/ml)

| Structure (SMILES) | MCP-1 production at 1.5 μg/ml higher than at 0.5 μg/ml ([1]; 1.5 μg/ml versus 0.5 μg/ml) | effectiveness in reducing MCP-1 among concentrations tested [1, 3] | IL-6 production at 1.5 μg/ml higher than at 0.5 μg/ml (Interleukin-6 (IL-6); 1.5 μg/ml versus 0.5 μg/ml) | effect on IL-6 production (Interleukin-6 (IL-6); [4]) | effectiveness in reducing IL-6 among concentrations tested (Interleukin-6 (IL-6); [3]) | TNF-α production at 1.5 μg/ml higher than at 0.5 μg/ml ([2]; 1.5 μg/ml versus 0.5 μg/ml) | effect on TNF-α production [2, 4] | effectiveness in reducing TNF-α among concentrations tested [2, 3] | inhibition of MCP-1 production ([1]; 0.5 μg/ml) | inhibition of MCP-1 production ([1]; 1.5 μg/ml) | inhibition at 5 µg/mL ([1]; Homo sapiens, Macrophage, 5.0 μg/ml, read-out: inhibition of production (printed TNF-α, in MCP-1 example)) | reduction of TNF-α production ([2]; 10.0 μg/ml, 18 hour incubation) | inhibition at 0.7 µg/mL ([2]; Homo sapiens, 0.7 μg/ml, 18 hour incubation) | inhibition at 5 µg/mL ([2]; Homo sapiens, 5.0 μg/ml, 18 hour incubation) |
| --- | --- | --- | --- | --- | --- | --- | --- | --- | --- | --- | --- | --- | --- | --- |
| NC(=O)C1=C(O)C[C@@H]2C[C@@H]3Cc4cccc(O)c4C(=O)C3=C(O)[C@]2(O)C1=O [CMT-3, 6-demethyl-6-deoxy-4-dedimethylaminotetracycline] | 16% | most effective | 43% | reduced IL-6 production | most effective | about 50% | reduced TNF-α production | most effective |  |  |  |  |  |  |
| C[C@H]1c2cccc(O)c2C(=O)C2=C(O)[C@]3(O)C(=O)C(C(N)=O)=C(O)[C@@H](N(C)C)[C@@H]3[C@@H](O)[C@@H]21 [doxycycline, reference compound] |  |  |  |  |  |  |  |  | did not inhibit | did not inhibit | ~68% | about 94% | ~14% | ~37% |
